Tests used:
biofilm [1] = assay: Biofilm biovolume after 4-hour filtration test, furanone C-30 fibers vs control fibers (SEM); type: cell-based; settings: furanone C-30 control-released from 3:1 PCL/PEG fibers on MCE filter
Source text: (§1) Bench Scale Nanofiltration System: A bench scale nanofiltration system for monitoring water output efficiencies and biofilm formation on MCE membranes was used as illustrated in FIG. 2.
In this example, a membrane comprising a filter coating, which was deposited by electrospinning fibers comprising a polymer blend (3:1 polycaprolactone (PCL) to polyethylene glycol (PEG)) associated with one or more anti-QS molecules furanone C-30 was compared to a control membrane comprising a filter coating, which was deposited by electrospinning fibers comprising a polymer blend (3:1 polycaprolactone (PCL) to polyethylene glycol (PEG).
FIG. 8A is a scanning electron micrograph image showing the biofilm biovolume after a 4-hour filtration test of a MCE filter comprising electrospun PCL/PEG fibers. FIG. 8B is a scanning electron micrograph image showing the biofilm biovolume after a 4-hour filtration test of a MCE filter comprising electrospun PCL/PEG fibers associated with one or more anti-QS furanone C-30 molecules.

P. aeruginosa (PAO1) = assay: Biofilm growth on filtration membranes in bench scale nanofiltration system, 4-hour operation (CLSM); type: cell-based, Pseudomonas aeruginosa
Description: Polymeric Component: A polymer blend for electrospinning was prepared comprising 3 wt. % PEG (8,000 MW, Sigma Aldrich) and 8.9 wt. % PCL (80,000 MW, Sigma Aldrich) in chloroform. The PEG/PCL polymer blend was stirred with a Teflon coated stir bar at 80° C. until no visible polymer weas present.
Anti-Quorum Sensing Molecules: The polymeric component comprising the polymer blend was seeded with Urolithin A at a concentration of 200 μg/mL during mixing. Fiber mats comprising Urolithin A were stored at 4-8° C. for preservation prior to application.
Electrospinning: The polymeric component comprising the polymer blend was pumped continuously by a syringe pump at a fixed rate of 0.250 mL/hour to a vertical Spraybase electrospinner equipped with a 22-guage needle at a voltage of 6.6 kV and grounded equidistant copper-plated parallel electrodes for uniaxially aligned deposition (parallel gap electrospinning). A separation distance of 4 cm between the needle and grounded electrodes were maintained for 20 minutes while the fiber mat was fabricated. Fiber mats were rotated at 10 minutes to achieve a crosshatch filter pattern. Fibers were then placed onto MCE membranes and investigated for their controlled release of the anti-QS molecules. […]

[2] = Membrane performance (water quantity output) in bench scale nanofiltration system; settings: electrospun 3:1 PCL:PEG fibers with Urolithin A 200 μg/mL; 4-hour operation
Source text: as §1
In this example, biofouling on filtration membranes was investigated by examining anti-quorum sensing molecules in P. aeruginosa (PAO1). More specifically, a membrane comprising an unmodified membrane (referred to “MCE Control”); a membrane (referred to as “Control Fibers”) comprising a filter coating, which was deposited by electrospinning fibers comprising a polymer blend (3:1 polycaprolactone (PCL) to polyethylene glycol (PEG)); and a membrane (referred to as “Anti-QS Fibers” comprising a filter coating, which was deposited by electrospinning fibers comprising a polymer blend (3:1 polycaprolactone (PCL) to polyethylene glycol (PEG)) associated with one or more anti-QS molecules (200 μg/mL). Biofilm growth over a 4-hour operation was investigated and compared for the MCE Control, Control Fibers, and Anti-QS Fibers.

biofilm [3] = assay: Biofilm growth on membranes with Urolithin A fibers at 50, 100, 200 μg/mL (CLSM); type: cell-based; settings: PCL/PEG fibers with Urolithin A 50, 100, 200 μg/mL; FIG. 6A-6D
Description: as §1
In this example, biofouling on filtration membranes was investigated by comparing membranes comprising a filter coating associated with one or more anti-QS Urolithin A molecules having concentrations of 50 μg/mL, 100 μg/mL, and 200 μg/mL.
FIG. 6A is a confocal microscopy (CLSM) image showing the biofilm growth on an unmodified control membrane. FIG. 6B is a confocal microscopy (CLSM) image showing the biofilm growth on a membrane comprising electrospun PCL/PEG fibers associated with one or more anti-QS Urolithin A molecules (50 μg/mL). FIG. 6C is a confocal microscopy (CLSM) image showing the biofilm growth on a membrane comprising electrospun PCL/PEG fibers associated with one or more anti-QS Urolithin A molecules (100 μg/mL). FIG. 6D is a confocal microscopy (CLSM) image showing the biofilm growth on a membrane comprising electrospun PCL/PEG fibers associated with one or more anti-QS Urolithin A molecules (200 μg/mL).

SMILES | reduction in biovolume relative to the control membrane (PCL/PEG fibers) (biofilm [1]) [%] | reduction of biofilm formation during filtration compared to the MCE Control (P. aeruginosa (PAO1); electrospun 3:1 PCL:PEG coating with Urolithin A 200 μg/mL) [%] | increase of biovolume reduction by controlled release of anti QS molecules (P. aeruginosa (PAO1); electrospun 3:1 PCL:PEG fibers with Urolithin A 200 μg/mL) [%] | increase of flux [2] [%] | biofilm biovolume vs concentration of Urolithin A in fibers (biofilm [3])
O=C1C=C(Br)/C(=C/Br)O1 [furanone C-30] | 57.5 | – | – | – | –
O=c1oc2cc(O)ccc2c2ccc(O)cc12 [Urolithin A] | – | 83.48 | 26.05 | 52.78 | biofilm biovolume reduction corresponding to the increased concentrations
